# Measured values from patent US20080176787A1, “Parathyroid hormone analogues and methods of use” (priority 2005, published 2008).
# Where two headings read alike, the source gives them in different places. Positions of bridges follow the written chain, without caps; N, C: chain ends. Residues, ends and D or L forms follow the SMILES beside them.
# Experiments:
# [1] = system: post-menopausal women with low bone mineral density; settings: human, in vivo
# Description: A four month Phase II clinical study was undertaken to investigate the safety, tolerability and efficacy of Ostabolin-C™ in post-menopausal women with low bone mineral density (BMD). […] The clinical protocol is a 16-week phase II randomized, double-blind, placebo-controlled, parallel group, dose finding study to investigate the safety, tolerability and efficacy of Ostabolin-C™ in post-menopausal women with low bone mineral density (BMD). In this study, 261 patients underwent four months of daily dosing of placebo and four active groups. The active groups included daily administration of Ostabolin-C™ in doses of 7.5, 15, 30, and 45 μg. Ostabolin-C™ is formulated as a clear, colorless liquid provided in pre-filled syringes and injected subcutaneously (SC). Subjects self-administer SC 0.1 mL injections of their assigned dose of Ostabolin-C™ 7.5, 15, 30, and 45 μg or placebo daily for 16 weeks in rotating quadrants of the abdomen. The subjects were post-menopausal women (for at least 5 years) with moderate osteoporosis.
# The key endpoints for the study include change in mean BMD at the lumbar spine, as assessed by dual energy x-ray absorptiometry (DEXA), and measured by change from the Baseline visit. The Baseline visit is the first visit of the patient, before undergoing any treatment. Secondary efficacy endpoints include the following, as measured by change from Baseline visit:
# DEXA: Bone formation and resorption markers: • Mean femoral neck BMD • Serum osteocalcin • Mean trochanter BMD • Serum amino terminal pro-peptide of type 1 pro-collagen (P1NP) • Mean total hip BMD • Mean radial BMD (distal and midshaft) • Bone specific alkaline phosphatase (BSAP) • Bone mineral content (BMC) • Serum C-telopeptide (CTx) • Bone area • Serum N-telopeptide (NTx)
# [2] = system: gonad-intact cynomolgus monkeys; assay: 52-week (12 months) daily subcutaneous study in gonad-intact young cynomolgus monkeys: bone mass, histomorphometry, % cortical porosity; type: in vivo; settings: for % Cortical Porosity: Tibial Mid-Diaphysis, 12 months
# Description: The peptide [Leu^27]cyclo[Glu^22-Lys^26]-hPTH-(1-31)-NH2 Ostabolin-C™ was administered daily by subcutaneous injection to gonad-intact cynomolgus monkeys (4/sex/group) at dose levels of 0, 2, 10 and 25 μg/kg for 52 weeks. Monkeys were 30 to 40 months of age (2.3-3.5 kg) at treatment start. Tibiae were retained for histomorphometry following labeling with calcein green 15 and 5 days prior to euthanasia. Bone mass, as measured by DXA (dual-energy x-ray absorptiometry) and QCT (quantitative computed tomography), was increased at the lumbar spine, femur and tibia. Changes in vertebral BMD (bone mineral density) translated into significant increases in bone strength. […] Tibial cancellous bone volume increased by more than 50% in all the peptide [Leu^27]cyclo[Glu^22-Lys^26]-hPTH-(1-31)-NH2 treated groups compared to controls and in the tibial mid-diaphysis, increases in cortical width and relative cortical area with concurrent decreases in medullary area were observed. […] Increases in indices of bone formation were associated with decreases in indices of bone resorption (decreased bone resorption markers, decreased osteoclast surface area, minimal cortical porosity), consistent with the uncoupling of these events. This combination of anabolic and anti-catabolic actions may have significant therapeutic value in the treatment of osteoporosis.
# Comparative data regarding increase in cortical bone porosity in monkey subjects using Ostabolin C at a variety of doses and using the prior art PTHs 1-34 is shown below.
# [3] = Plasma pharmacokinetics of Ostabolin-C formulations in female rats, single 200 μg/kg SC, IM, IV; type: in vivo; settings: rat; for Vd: iv
# Description: Formulations were prepared once only as follows: The bulk freeze-dried peptide was dissolved in 0.01 M acetic acid (supplied by Fisher Scientific, Loughborough, UK) in a 1:1 ratio, re-aliquotted into dosing vials and deep frozen (approximately −70° C.). The vials were freeze-dried at <−20° C. and stored frozen until required. The freeze-dried aliquots for injection were re-constituted with water for injection (supplied by Animalcare Ltd, York, UK). The peptide was dissolved in an appropriate volume of purified water to an approximate concentration of 2 to 3 mg/mL. Phosphate buffered saline (pH 7.4) was added to give the final required concentration (at approximately pH 7.2). The capped vial(s) were mixed thoroughly to ensure the peptide was fully dissolved. Aseptic techniques and glass vials were used throughout dose preparation. The dose was not sterile filtered. […] The calculated amounts of mannitol, sodium acetate trihydrate and glacial acetic acid were weighed and then dissolved in the correct amount of water for injection. The test article was weighed, added to the solution and stirred to dissolve. The pH was adjusted to 4.5 with 0.1N NaOH or HCl (supplied by Covance, Harrogate) depending on initial pH. Water was added to obtain the required volume.
# The calculated amount of lipoic acid was weighed and transferred to a suitable container and then dispersed with water for injection. The pH was adjusted to 7.7 with 1N NaOH (supplied by BDH Laboratory Supplies, a division of Merck Ltd, Poole, UK). The test article was weighed, added and stirred to dissolve. The pH was adjusted to 7.5 with 1N NaOH. Propylene glycol was added to obtain the correct volume.
# The calculated amount of DL-Methionine was weighed and transferred to a suitable container and dispersed in water for injection. The test article was weighed and added to the solution. The pH was adjusted to 7.5 with 0.1N NaOH. Ethanol was added to make the required volume.
structure (smiles),measurement,setting,value
"CC[C@H](C)[C@H](NC(=O)[C@H](CCC(=O)O)NC(=O)[C@H](CO)NC(=O)[C@@H](NC(=O)[C@@H](N)CO)C(C)C)C(=O)N[C@@H](CCC(N)=O)C(=O)N[C@@H](CC(C)C)C(=O)N[C@@H](CCSC)C(=O)N[C@@H](Cc1c[nH]cn1)C(=O)N[C@@H](CC(N)=O)C(=O)N[C@@H](CC(C)C)C(=O)NCC(=O)N[C@@H](CCCCN)C(=O)N[C@@H](Cc1c[nH]cn1)C(=O)N[C@@H](CC(C)C)C(=O)N[C@@H](CC(N)=O)C(=O)N[C@@H](CO)C(=O)N[C@@H](CCSC)C(=O)N[C@@H](CCC(=O)O)C(=O)N[C@@H](CCCN=C(N)N)C(=O)N[C@H](C(=O)N[C@H]1CCC(=O)NCCCC[C@@H](C(=O)N[C@@H](CC(C)C)C(=O)N[C@@H](CC(C)C)C(=O)N[C@@H](CCC(N)=O)C(=O)N[C@@H](CC(=O)O)C(=O)N[C@H](C(N)=O)C(C)C)NC(=O)[C@H](CCCN=C(N)N)NC(=O)[C@H](CC(C)C)NC(=O)[C@H](Cc2c[nH]c3ccccc23)NC1=O)C(C)C [Ostabolin-C, [Leu^27]cyclo[Glu^22-Lys^26]-PTH-(1-31)-NH2] (H-SVSEIQLMHNLGKHLNSMERVEWLRKLLQDV-NH2; lactam 22-26)",Pts > 2.75 mmol/L (sustained),[1],0
same,% Cortical Porosity,"[2]; F, 2 μg/kg/day",2.5 ± 0.41%
same,% Cortical Porosity,"[2]; F, 10 μg/kg/day",2.6 ± 0.85%
same,% Cortical Porosity,"[2]; F, 25 μg/kg/day",3.2 ± 0.87%
same,% Cortical Porosity,"[2]; M, 2 μg/kg/day",4.2 ± 0.29%
same,% Cortical Porosity,"[2]; M, 10 μg/kg/day",5.1 ± 1.08%
same,% Cortical Porosity,"[2]; M, 25 μg/kg/day",8.0 ± 5.54%
same,cortical porosity,"[2]; two highest dose levels, 52 weeks",Only minor increases
same,bioavailability,"[3]; female, 200 ug/kg, IM, read-out: Absolute bioavailability",8.7%
same,level at 2 min,"[3]; female, 200 ug/kg, IV, not quantified, read-out: plasma concentrations at 2 minutes post the end of the infusion",> 610 ng/mL
same,bioavailability,"[3]; female, 200 ug/kg, SC, read-out: Absolute bioavailability (Fabs)",< 2%
same,Vd,"[3]; female, 200 ug/kg, IV, female rats, read-out: Vss",0.479 L/kg
same,Vd,"[3]; female, 200 ug/kg, IV, female rats, read-out: Vz",0.471 L/kg
same,half-life,"[3]; female, other: SC, 200 ug/kg, SC, IM and IV dose routes, read-out: terminal elimination half life, where calculable",7.2 to 42.4 min
same,clearance,"[3]; 200 ug/kg, IV, female rats",45.4 mL/min/kg
same,Tmax,"[3]; IV, female rats, post end of infusion",5 min
